Source: patent US20250275964A1, “METHODS OF INHIBITING LIVER-TYPE GLUTAMINASE, GLS2” (CORNELL UNIVERSITY, priority 2019, published 2025)

Tests used:
Assay type in all cases: cell-based, human
BT-474 cells = test: 6-day cell proliferation assay, BT-474; conditions: BT-474, proliferation over 6 days
Description: Human breast cancer cell lines MCF7, BT-474, T-47D, MDA-MB-453, MDA-MB-231, Hs 578T, HCC38, SK-BR-3, and DU4475 were purchased from the American Type Culture Collection (ATCC) and no additional cell authentication was performed. The TSE human breast cancer cell line was supplied by Dr. Steven Abcouwer (University of Michigan). All breast cancer cells were cultured at 37° C. under a 5% CO2 atmosphere in RPMI 1640 medium containing 2 mM glutamine (Gibco) and supplemented with 10% fetal bovine serum (FBS) (Gibco). The 293T cell line (ATCC) used for generating lentivirus particles was cultured as above but using DMEM, high glucose (Gibco).
(§1) Culture medium was added to 12-well plates (1 ml/well) and wells were seeded with cells at Day 0 as follows. MCF7, T-47D, BT-474, HCC38 cells: […] cells/well. MDA-MB-453 and MDA-MB-231 cells: 1×10^4 cells/well. TSE and Hs 578T cells: 0.3×10^4 cells/well. After 16 hours, culture medium was replaced with fresh medium supplemented with appropriate concentrations of inhibitors and was subsequently replaced every 48 hours. On Day 6 cells were trypsinized and suspended in an appropriate volume of culture medium, and the total number of cells per well was determined using a hemocytometer or a TC20 Automated Cell Counter (Bio-Rad).

[1] = tested on: MDA-MB-231 cells stably expressing GLS2; test: 6-day cell proliferation assay, MDA-MB-231 stably expressing GLS2
Description: as §1
(§2) Vectors for expressing human GAC or GLS2 in breast cancer cell lines were based on pCDNA3.1/V5-His TOPO (Thermo Fisher Scientific), with the appropriate gene sub-cloned in and the tag switched to HA-tag or myc-tag for immunofluorescence experiments. Vectors pQE80-GAC-72-598 and pQE80-GLS2-38-602, for expressing the processed forms of human GAC (residues 72 to 598) or GLS2 (residues 38 to 602) in E. coli, were described in Huang et al., “Characterization of the Interactions of Potent Allosteric Inhibitors with Glutaminase C, a Key Enzyme in Cancer Cell Glutamine Metabolism,” J. Biol. Chem. 293:3535-3545 (2018), which is hereby incorporated by reference in its entirety.
For 60 mm dish format. 0.2 ml Opti-MEM (Gibco) containing […] of the appropriate DNA construct, along with 0.2 ml Opti-MEM containing 12 μl Lipofectamine 2000 (Invitrogen), were separately incubated at room temperature for 5 min. The two solutions were combined and incubated for an additional 20 min, mixed with 1.6 ml culture medium and added to cells. After 5 hours incubation at 37° C. the transfection mixture was replaced with fresh culture medium, and cells were then incubated for an additional 48 hours to allow for ectopic expression of GLS or GLS2. To select for cells stably expressing the DNA construct, culture medium supplemented with 500 μg/ml G-418 disulfate (Research Products International) was added and replaced every 2 days for 2-3 weeks until isolated colonies ˜2 mm in diameter were present. Individual colonies were transferred to a 12-well plate (1 colony per well) using sterile blotting paper soaked in trypsin solution and were then cultured in medium supplemented with 250 μg/ml G-418 disulfate. All colonies were screened by western blot for ectopic expression, and positive clones were maintained in medium supplemented with 250 μg/ml G-418 disulfate.

[2] = tested on: TSE cells carrying the plasmid vector only; test: 6-day cell proliferation assay, TSE vector only; conditions: 6 days
Description: as §1, §2
(§3) For 60 mm dish format. […]

[3] = tested on: MDA-MB-231 cells carrying the plasmid vector only; test: 6-day cell proliferation assay, MDA-MB-231 vector only; conditions: 6 days
Description: as §1, §2, §3

[4] = MDA-MB-231 GLS2 clone 1, 6 days
[5] = MDA-MB-231 GLS2 clone 2, 6 days

| EC50 ([1]; MDA-MB-231 with ectopic expression of GLS2, 6 days) [µM] | Compound | EC50 (BT-474 cells) [µM] | EC50 [1, 4] [µM] | EC50 [1, 5] [µM] | EC50 [2] [µM] | EC50 [3] [µM] |
| --- | --- | --- | --- | --- | --- | --- |
| > 20 | O=C(Cc1ccccc1)Nc1nnc(CCSCCc2nnc(NC(=O)Cc3ccccc3)s2)s1 [BPTES] | ~20 | > 20 | > 20 | 4 | 1.3 |
| – | CN(C)c1ccc(C2Nc3ccc4ccccc4c3C3=C2C(=O)CC(C)(C)C3)cc1Br (centres unmarked) [Compound 968] | 4 | 4 | 5 | 2 | 2 |
